US10800782B2, “Inhibitors of cellular metabolic processes” (Agios Pharmaceuticals, Inc., priority 2016, dated 2020)

Molecular target: T1, MAT2A (Homo sapiens, UniProt P31153)
T1 construct: His6; made in house; host or cells: SF9 insect cells
Assay: MAT2A biochemical assay (colorimetric inorganic phosphate detection, PiColorLock)
Details: recombinant His6-tagged MAT2A 1 μg/ml; 60 minutes preincubation at 25° C.; L-Met 80 μM, ATP 100 μM; 60 minutes reaction; read at 623 nm; read-out: MAT2A Inhibition Score
Experimental: In the reaction catalyzed by MAT2A enzyme, L-Met and ATP were converted to SAM, inorganic phosphate, and inorganic diphosphate. […] The concentration of malachite green phosphomolybdate produced in the detection reaction is thus directly related to the quantity of product produced by the MAT2A enzyme. Multiple commercial kits exist for this method of phosphate detection and quantification, such as PiColorLock Gold (Innova Biosciences). Typical reaction was performed in 50 μl final volume, containing buffer (Tris, pH 8.0, 50 mM KCl, 15 mM MgCl2, 300 uM EDTA, bovine serum albumin at 0.005% w/v) and 1 μg/ml MAT2A. Compounds were added in 1 μl of DMSO at the desired concentration; a typical dose response curve contained ten points with three-fold dilution between compound concentrations. […] The reaction was allowed to proceed for 60 minutes at room temperature then halted by the addition of 13 μl of PiColor Lock reagent. After a further 5 minutes of incubation at room temperature, […] of PiColor Stabilizer was added and the reactions were further incubated at 25° C. for 25 minutes. […] Recombinant MAT2A protein was expressed in SF9 insect cells and purified by metal chelate affinity chromatography, using methods well known in the art. After expression of His6-tagged MAT2A cells were disrupted by 4 passes through an M-Yl 10 Micro fluidizer (Microfluidics) set to 500 psi, and then centrifuged at 22,000 rcf for 20 min at 4° C. The supernatant was harvested and loaded at 15 cm/h on a Histrap FF 5*1 ml column (GE) which was equilibrated with 50 mM Tris, 500 mM NaCl, pH7.4. Host cell contaminants were removed by washing the column with equilibration buffer followed by equilibration buffer containing 20 mM imidazole and 60 mM imidazole to baseline. MAT2A protein was eluted by the addition of buffer containing 250 mM imidazole, dialized into 50 mM NaCl, 50 mM Tris, pH 7.4, flash frozen in liquid nitrogen, and stored at −80° C. until use.

T1 sequence (P31153 whole entry): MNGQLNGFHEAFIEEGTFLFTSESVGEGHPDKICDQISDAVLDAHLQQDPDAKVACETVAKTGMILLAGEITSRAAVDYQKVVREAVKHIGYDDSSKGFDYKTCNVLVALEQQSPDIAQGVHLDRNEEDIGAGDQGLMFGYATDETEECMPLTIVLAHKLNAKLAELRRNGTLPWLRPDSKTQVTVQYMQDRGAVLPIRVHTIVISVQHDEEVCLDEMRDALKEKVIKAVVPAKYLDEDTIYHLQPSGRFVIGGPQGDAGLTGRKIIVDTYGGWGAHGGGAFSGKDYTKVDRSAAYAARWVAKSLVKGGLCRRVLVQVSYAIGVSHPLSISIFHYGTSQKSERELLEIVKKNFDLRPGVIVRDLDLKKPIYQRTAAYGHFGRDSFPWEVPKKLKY

IC50, < 100 nM:
COc1ccc(-c2c(Nc3cnc(C#N)cn3)[nH]c3c(-c4ccccc4)c(-c4ccccc4)nn3c2=O)cc1 [Compound 129, 5-(6-(4-methoxyphenyl)-7-oxo-2,3-diphenyl-4,7-dihydropyrazolo[1,5-a]pyrimidin-5-ylamino)pyrazine-2-carbonitrile]
COc1ccc(-c2c(Nc3cnc(N)cn3)[nH]c3c(-c4ccccc4)c(-c4ccccc4)nn3c2=O)cc1 [Compound 130, 5-((5-aminopyrazin-2-yl)amino)-6-(4-methoxyphenyl)-2,3-diphenylpyrazolo[1,5-a]pyrimidin-7(4H)-one]
COc1ccc(-c2c(Nc3cncc(C#N)n3)[nH]c3c(-c4ccccc4)c(-c4ccccc4)nn3c2=O)cc1 [Compound 131, 6-(6-(4-methoxyphenyl)-7-oxo-2,3-diphenyl-4,7-dihydropyrazolo[1,5-a]pyrimidin-5-ylamino)pyrazine-2-carbonitrile]
COc1ccc(-c2c(Nc3ncncn3)[nH]c3c(-c4ccccc4)c(-c4ccccc4)nn3c2=O)cc1 [Compound 132, 5-((1,3,5-triazin-2-yl)amino)-6-(4-methoxyphenyl)-2,3-diphenylpyrazolo[1,5-a]pyrimidin-7(4H)-one]
COc1ccc(-c2c(Nc3cnncn3)[nH]c3c(-c4ccccc4)c(-c4ccccc4)nn3c2=O)cc1 [Compound 133, 5-((1,2,4-triazin-5-yl)amino)-6-(4-methoxyphenyl)-2,3-diphenylpyrazolo[1,5-a]pyrimidin-7(4H)-one]
COc1ccc(-c2c(Nc3ncnc(N)n3)[nH]c3c(-c4ccccc4)c(-c4ccccc4)nn3c2=O)cc1 [Compound 134, 5-((4-amino-1,3,5-triazin-2-yl)amino)-6-(4-methoxyphenyl)-2,3-diphenylpyrazolo[1,5-a]pyrimidin-7(4H)-one]
CNc1ncnc(Nc2[nH]c3c(-c4ccccc4)c(-c4ccccc4)nn3c(=O)c2-c2ccc(OC)cc2)n1 [Compound 135, 6-(4-methoxyphenyl)-5-((4-(methylamino)-1,3,5-triazin-2-yl)amino)-2,3-diphenylpyrazolo[1,5-a]pyrimidin-7(4H)-one]
COc1ccc(-c2c(Nc3ncnc(O)n3)[nH]c3c(-c4ccccc4)c(-c4ccccc4)nn3c2=O)cc1 [Compound 136, 5-((4-hydroxy-1,3,5-triazin-2-yl)amino)-6-(4-methoxyphenyl)-2,3-diphenylpyrazolo[1,5-a]pyrimidin-7(4H)-one]
COc1ccc(-c2c(Nc3nccs3)[nH]c3c(-c4ccccc4)c(-c4ccccc4)nn3c2=O)cc1 [Compound 137, 6-(4-methoxyphenyl)-2,3-diphenyl-5-(thiazol-2-ylamino)pyrazolo[1,5-a]pyrimidin-7(4H)-one]
COc1ccc(-c2c(Nc3ccon3)[nH]c3c(-c4ccccc4)c(-c4ccccc4)nn3c2=O)cc1 [Compound 138, 5-(isoxazol-3-ylamino)-6-(4-methoxyphenyl)-2,3-diphenylpyrazolo[1,5-a]pyrimidin-7(4H)-one]
COc1ccc(-c2c(Nc3cnoc3)[nH]c3c(-c4ccccc4)c(-c4ccccc4)nn3c2=O)cc1 [Compound 139, 5-(isoxazol-4-ylamino)-6-(4-methoxyphenyl)-2,3-diphenylpyrazolo[1,5-a]pyrimidin-7(4H)-one]
COc1ccc(-c2c(Nc3ccno3)[nH]c3c(-c4ccccc4)c(-c4ccccc4)nn3c2=O)cc1 [Compound 140, 5-(isoxazol-5-ylamino)-6-(4-methoxyphenyl)-2,3-diphenylpyrazolo[1,5-a]pyrimidin-7(4H)-one]
COc1ccc(-c2c(Nc3nccn3C)[nH]c3c(-c4ccccc4)c(-c4ccccc4)nn3c2=O)cc1 [Compound 141, 6-(4-methoxyphenyl)-5-(1-methyl-1H-imidazol-2-ylamino)-2,3-diphenylpyrazolo[1,5-a]pyrimidin-7(4H)-one]
COc1ccc(-c2c(Nc3ncc[nH]3)[nH]c3c(-c4ccccc4)c(-c4ccccc4)nn3c2=O)cc1 [Compound 142, 5-((1H-imidazol-2-yl)amino)-6-(4-methoxyphenyl)-2,3-diphenylpyrazolo[1,5-a]pyrimidin-7(4H)-one]
COc1ccc(-c2c(NC3=NCCS3)[nH]c3c(-c4ccccc4)c(-c4ccccc4)nn3c2=O)cc1 [Compound 143, 5-((4,5-dihydrothiazol-2-yl)amino)-6-(4-methoxyphenyl)-2,3-diphenylpyrazolo[1,5-a]pyrimidin-7(4H)-one]
COc1ccc(-c2c(Nc3nncs3)[nH]c3c(-c4ccccc4)c(-c4ccccc4)nn3c2=O)cc1 [Compound 144, 5-((1,3,4-thiadiazol-2-yl)amino)-6-(4-methoxyphenyl)-2,3-diphenylpyrazolo[1,5-a]pyrimidin-7(4H)-one]
COc1ccc(-c2c(Nc3nnc(N)s3)[nH]c3c(-c4ccccc4)c(-c4ccccc4)nn3c2=O)cc1 [Compound 145, 5-((5-amino-1,3,4-thiadiazol-2-yl)amino)-6-(4-methoxyphenyl)-2,3-diphenylpyrazolo[1,5-a]pyrimidin-7(4H)-one]
COc1ccc(-c2c(Nc3nnc(O)s3)[nH]c3c(-c4ccccc4)c(-c4ccccc4)nn3c2=O)cc1 [Compound 146, 5-((5-hydroxy-1,3,4-thiadiazol-2-yl)amino)-6-(4-methoxyphenyl)-2,3-diphenylpyrazolo[1,5-a]pyrimidin-7(4H)-one]
COc1ccc(-c2c(Nc3ncns3)[nH]c3c(-c4ccccc4)c(-c4ccccc4)nn3c2=O)cc1 [Compound 147, 5-((1,2,4-thiadiazol-5-yl)amino)-6-(4-methoxyphenyl)-2,3-diphenylpyrazolo[1,5-a]pyrimidin-7(4H)-one]
COc1ccc(-c2c(Nc3nc(OC)ns3)[nH]c3c(-c4ccccc4)c(-c4ccccc4)nn3c2=O)cc1 [Compound 148, 5-((3-methoxy-1,2,4-thiadiazol-5-yl)amino)-6-(4-methoxyphenyl)-2,3-diphenylpyrazolo[1,5-a]pyrimidin-7(4H)-one]
COc1ccc(-c2c(Nc3nonc3N)[nH]c3c(-c4ccccc4)c(-c4ccccc4)nn3c2=O)cc1 [Compound 149, 5-((4-amino-1,2,5-oxadiazol-3-yl)amino)-6-(4-methoxyphenyl)-2,3-diphenylpyrazolo[1,5-a]pyrimidin-7(4H)-one]
CCOC(=O)c1ncsc1Nc1[nH]c2c(-c3ccccc3)c(-c3ccccc3)nn2c(=O)c1-c1ccc(OC)cc1 [Compound 150, ethyl 5-((6-(4-methoxyphenyl)-7-oxo-2,3-diphenyl-4,7-dihydropyrazolo[1,5-a]pyrimidin-5-yl)amino)thiazole-4-carboxylate]
COc1ccc(-c2c(Nc3ccncn3)[nH]c3c(C4=CCCCC4)c(-c4ccccc4)nn3c2=O)cc1 [Compound 155, 3-(cyclohex-1-en-1-yl)-6-(4-methoxyphenyl)-2-phenyl-5-(pyrimidin-4-ylamino)pyrazolo[1,5-a]pyrimidin-7(4H)-one]
COc1ccc(-c2c(Nc3ccnc(OC)n3)[nH]c3c(C4=CCCCC4)c(-c4ccccc4)nn3c2=O)cc1 [Compound 156, 3-cyclohexenyl-6-(4-methoxyphenyl)-5-(2-methoxypyrimidin-4-ylamino)-2-phenyl-pyrazolo[1,5-a]pyrimidin-7(4H)-one]
COc1ccc(-c2c(Nc3cccnn3)[nH]c3c(C4=CCCCC4)c(-c4ccccc4)nn3c2=O)cc1 [Compound 157, 3-(cyclohex-1-en-1-yl)-6-(4-methoxyphenyl)-2-phenyl-5-(pyridazin-3-ylamino)pyrazolo[1,5-a]pyrimidin-7(4H)-one]
COc1ccc(-c2c(Nc3cnccn3)[nH]c3c(C4=CCCCC4)c(-c4ccccc4)nn3c2=O)cc1 [Compound 158, 3-cyclohexenyl-6-(4-methoxyphenyl)-2-phenyl-5-(pyrazin-2-ylamino) pyrazolo[1,5-a]pyrimidin-7(4H)-one]
COc1ccc(-c2c(Nc3cnc(C#N)cn3)[nH]c3c(C4=CCCCC4)c(-c4ccccc4)nn3c2=O)cc1 [Compound 159, 5-(3-cyclohexenyl-6-(4-methoxyphenyl)-7-oxo-2-phenyl-4,7-dihydropyrazolo[1,5-a]pyrimidin-5-ylamino)pyrazine-2-carbonitrile]
